Values of other authors as cited in US20040005368A1, “Novel approach to weight loss comprising a modified protein composition that regulates blood sugar in conjunction with compositions that increase oxygen uptake and suppress appetite” (priority 2002, published 2004).

Conditions: group of animals

| SMILES | loss in body fat | loss in body weight |
| --- | --- | --- |
| CN[C@@H](C)[C@H](O)c1ccccc1 [ephedrine] | 42% | 14% |
| Cn1c(=O)c2c(ncn2C)n(C)c1=O [caffeine] |  | no significant loss in body weight |
